Among the data in US20070203066A1, “Compositions and methods for inhibiting cellular proliferation” (priority 2005, published 2007) are IC50 values, retold here.

Non-standard residues stand in square brackets, D forms with d. No end group written: not given here. Ida = iminodiacetic acid linker, its two carboxyls bind the Lys side-chain amines of two peptides, giving a homodimer; Aib = CC(C)(N)C(=O)O

The assay relates to HUVECs. The class given is cell-based. The note with it: HUVEC proliferation, bFGF at 10 ng/ml or VEGF at 5 ng/ml, 48 hours, BrdU incorporation; read-out: IC50 on HUVECs. On the procedure: HUVECs were routinely cultured to near confluency in EGM media (Clontech, Mountain View, California). The cells were trypsinized and plated in a 96-well plate at 5,000 cells per well per 100 μl EBM supplemented with 2% FCS and antibiotics. The cells were allowed to adhere to the plate for at least 12 hours. Then, bFGF at 10 ng/ml or VEGF at 5 ng/ml, and various concentrations of peptide, were added to the wells. The cells were cultured for 48 hours at 37 ° C. in a 5% CO2 atmosphere. Cell proliferation was determined using a bromo-deoxyuridine (BrdU) incorporation method as described by the manufacturer. Inhibition of cell proliferation was assessed by BrdU incorporation.
For orientation: Incorporation of labelled thymidine or its analogues reports DNA synthesis.
For “251 (Ac-RRRRRQAVAIPFK; not fully specified (C-terminus); also: homodimer: side chain of Lys13 bound to an Ida linker) [compound 251]”, the IC50 was above 30 µM.
The figure for “252 (Ac-ARRRRQRVAIIF[dK]; not fully specified (C-terminus); also: homodimer: side chain of Lys13 bound to an Ida linker) [compound 252]” is below 10 µM; for “253 (Ac-ARRRRQRVAII[dF]K; not fully specified (C-terminus); also: homodimer: side chain of Lys13 bound to an Ida linker) [compound 253]” it is below 10 µM; for “255 (Ac-ARRRRQRVA[dI]IFK-NH2; not fully specified (residue 13); also: homodimer via Ida linker on Lys13 side chains) [compound 255]” it is below 10 µM.
With “256 (Ac-ARRRRQRV[dA]IIFK; not fully specified (C-terminus); also: homodimer: side chain of Lys13 bound to an Ida linker) [compound 256]” the figure was below 10 µM; with “257 (Ac-ARRRRQR[dV]AIIFK; not fully specified (C-terminus); also: homodimer: side chain of Lys13 bound to an Ida linker) [compound 257]”, below 10 µM; with “258 (Ac-ARRRRQ[dR]VAIIFK-NH2; not fully specified (residue 13); also: homodimer via Ida linker on Lys13 side chains) [compound 258]”, below 10 µM.
With “259 (Ac-ARRRR[dQ]RVAIIFK-NH2; not fully specified (residue 13); also: homodimer via Ida linker on Lys13 side chains) [compound 259]” the figure was below 10 µM; with “260 (Ac-ARRR[dR]QRVAIIFK-NH2; not fully specified (residue 13); also: homodimer via Ida linker on Lys13 side chains) [compound 260]”, below 10 µM; with “261 (Ac-ARR[dR]RQRVAIIFK-NH2; not fully specified (residue 13); also: homodimer via Ida linker on Lys13 side chains) [compound 261]”, below 10 µM.
As for “262 (Ac-AR[dR]RRQRVAIIFK-NH2; not fully specified (residue 13); also: homodimer via Ida linker on Lys13 side chains) [compound 262]”, the IC50 was below 10 µM.
As for “263 (Ac-A[dR]RRRQRVAIIFK-NH2; not fully specified (residue 13); also: homodimer via Ida linker on Lys13 side chains) [compound 263]”, the IC50 is below 10 µM.
The figure for “264 (Ac-[dA]RRRRQRVAIIFK-NH2; not fully specified (residue 13); also: homodimer via Ida linker on Lys13 side chains) [compound 264]” is below 10 µM.
As for “265 (Ac-RRRRRQAVAIGFK; not fully specified (C-terminus); also: homodimer: side chain of Lys13 bound to an Ida linker) [compound 265]”, the IC50 is below 10 µM.
With “266 (Ac-RRRRRQAVAIWFK; not fully specified (C-terminus); also: homodimer: side chain of Lys13 bound to an Ida linker) [compound 266]” the figure was below 10 µM; with “268 (Ac-ARRRRQRVAIPFK-NH2; not fully specified (residue 13); also: homodimer: side chain of Lys13 bound to an Ida linker) [compound 268]”, above 30 µM; with “269 (Ac-ARRRRQRVAIEFK-NH2; not fully specified (residue 13); also: homodimer: side chain of Lys13 bound to an Ida linker) [compound 269]”, 10 to 30 µM.
The figure for “270 (Ac-RRRRRQAVAINFK-NH2; not fully specified (residue 13); also: homodimer: Lys13 side chain bound to Ida linker) [compound 270]” is below 10 µM; for “271 (Ac-ARRRRQRVAIYF; also: homodimer via Lys linker, Phe C-termini bound to the two Lys amino groups) [compound 271]” it is below 10 µM; for “272 (Ac-RARRRQAVAINFK-NH2; not fully specified (residue 13); also: homodimer via Ida linker on Lys13 side chain) [compound 272]” it is below 10 µM.
With “273 (Ac-RARRRQAVAITFK-NH2; not fully specified (residue 13); also: homodimer: Lys13 side chain bound to Ida linker) [compound 273]” the figure was below 10 µM.
Take “274 (Ac-RARRRQAVAIWFK-NH2; not fully specified (residue 13); also: homodimer via Ida linker on Lys13 side chain) [compound 274]”: the concentration for half-maximal inhibition (IC50) is below 10 µM.
The figure for “275 (Ac-RARRRQAVAIYFK-NH2; not fully specified (residue 13); also: homodimer via Ida linker on Lys13 side chain) [compound 275]” is below 10 µM.
The figure for “276 (XRRRRQHVRIYFK; not fully specified; Xaa = Acylated Histidine; The side chain of Lysine at position 13 is covalently bound to an Ida linker forming a homodimer of residues 1 through 13.) [compound 276]” is below 10 µM; for “277 (XRRRRQRVHIYFK; not fully specified; Xaa = Acylated Histidine; The side chain of Lysine at position 13 is covalently bound to an Ida linker forming a homodimer of residues 1 through 13.) [compound 277]” it is below 10 µM.
Take “278 (Ac-RRRRRQHVHIYFK-NH2; not fully specified (residue 13); also: homodimer: Lys13 side chain bound to Ida linker) [compound 278]”: the IC50 was below 10 µM.
Consider “280 (Ac-RRRRAQAVAIYFK-NH2; not fully specified (residue 13); also: homodimer via Ida linker on Lys13 side chain) [compound 280]”, for which the IC50 was below 10 µM.
The figure for “281 (Ac-RRRRHQAVAIYFK-NH2; not fully specified (residue 13); also: homodimer via Ida linker on Lys13 side chain) [compound 281]” is below 10 µM.
For “282 (Ac-RRRRAQHVAIYFK-NH2; not fully specified (residue 13); also: homodimer: Lys13 side chain bound to Ida linker) [compound 282]”, the IC50 was below 10 µM.
The figure for “283 (Ac-RRRRAQAVHIYFK-NH2; not fully specified (residue 13); also: homodimer: Lys13 side chain bound to Ida linker) [compound 283]” is below 10 µM; for “284 (Ac-RRRRHQHVAIYFK-NH2; not fully specified (residue 13); also: homodimer: Lys13 side chain bound to Ida linker) [compound 284]” it is below 10 µM; for “285 (Ac-RRRRHQAVHIYFK-NH2; not fully specified (residue 13); also: homodimer via Ida linker on Lys13 side chain) [compound 285]” it is below 10 µM.
With “286 (Ac-RRRRAQHVHIYFK-NH2; not fully specified (residue 13); also: homodimer via Ida linker on Lys13 side chain) [compound 286]” the figure was below 10 µM; with “287 (Ac-RRRRHQHVHIYFK-NH2; not fully specified (residue 13); also: homodimer via Ida linker on Lys13 side chain) [compound 287]”, below 10 µM.
Turning to “298 (Ac-ARRRRQRVA[Aib]FK-NH2; not fully specified (residue 12); also: homodimer via Ida linker on Lys12 side chain) [compound 298]”, the half-inhibitory concentration (IC50) was above 30 µM.
The figure for “299 (Ac-RRRRRQAVRIGIGFK-NH2; also: homodimer: Lys15 side chain bound to Ida linker) [compound 299]” is below 10 µM; for “300 (Ac-RRRRRQAVRIPIPFK-NH2; not fully specified (residue 15); also: homodimer: Lys15 side chain bound to Ida linker) [compound 300]” it is 10 to 30 µM.
With “301 (Ac-RRRRRQAVRITITFK-NH2; not fully specified (residue 15); also: homodimer: Lys15 side chain bound to Ida linker) [compound 301]” the figure was below 10 µM; with “302 (Ac-RRRRRQAVRIAIAFK(Ida)-NH2; also: homodimer via Ida linker on Lys15 side chain) [compound 302]”, below 10 µM.
The figure for “303 (Ac-RRRRRQAVRIQIQFK(Ida)-NH2; also: homodimer via Ida linker on Lys15 side chain) [compound 303]” is below 10 µM; for “304 (Ac-RRRRRQAVRIDIDFK(Ida)-NH2; also: homodimer via Ida linker on Lys15 side chain) [compound 304]” it is below 10 µM.

For orientation: IC50 means the concentration at which inhibition is half-maximal.
